SMILES strings stand for the structures. Where “and” joins values, the source holds several entries; their conditions need not be identical. Identical values can stand only once. Toxic doses and inconclusive results are not listed.

For 23 compounds, T/C results are on record in PubChem BioAssay AID330 (DTP/NCI, 2004).

The test system of the experiment is P388 leukemia ip, CD2F1 mice, survival T/C. The experiment in a line: NCI In Vivo Anticancer Drug Screen. Data for tumor model P388 Leukemia (intraperitoneal) in CD2F1 (CDF1) mice. Conditions: endpoint: median survival time, higher = longer survival. The essentials: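 Mice carrying the transplanted tumor received test compound or vehicle. Survival was recorded in each group, and the value is the treated-group measurement divided by that of the vehicle-treated control group.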

Setting [1] is: dose: 50.0 mg/kg/injection, schedule: Q01DX005 (ip), vehicle: Klucel (hydroxypropylcellulose) (HPC).
[2] abbreviates: dose: 100.0 mg/kg/injection, schedule: Q01DX005 (ip), vehicle: Klucel (hydroxypropylcellulose) (HPC).
[3] abbreviates: dose: 200.0 mg/kg/injection, schedule: Q01DX005 (ip), vehicle: Klucel (hydroxypropylcellulose) (HPC).
The mark [4] stands for this setting: dose: 50.0 mg/kg/injection, schedule: Q01DX009 (ip), vehicle: Klucel (hydroxypropylcellulose) (HPC).
Setting [5] is: dose: 100.0 mg/kg/injection, schedule: Q01DX009 (ip), vehicle: Klucel (hydroxypropylcellulose) (HPC).
Where [6] appears, read: dose: 200.0 mg/kg/injection, schedule: Q01DX009 (ip), vehicle: Klucel (hydroxypropylcellulose) (HPC).
Setting [7] is: dose: 12.5 mg/kg/injection, schedule: Q01DX009 (ip), vehicle: saline with Tween-80.
Setting [8] is: dose: 50.0 mg/kg/injection, schedule: Q01DX009 (ip), vehicle: saline with Tween-80.
Setting [9] is: dose: 100.0 mg/kg/injection, schedule: Q01DX009 (ip), vehicle: saline with Tween-80.
Where [10] appears, read: dose: 200.0 mg/kg/injection, schedule: Q01DX009 (ip), vehicle: saline with Tween-80.
The mark [11] stands for this setting: dose: 25.0 mg/kg/injection, schedule: Q01DX009 (ip), vehicle: saline with Tween-80.
[12] abbreviates: dose: 60.0 mg/kg/injection, schedule: Q01DX005 (ip), vehicle: saline with Tween-80.
Setting [13] is: dose: 120.0 mg/kg/injection, schedule: Q01DX005 (ip), vehicle: saline with Tween-80.
Where [14] appears, read: dose: 240.0 mg/kg/injection, schedule: Q01DX005 (ip), vehicle: saline with Tween-80.
[15] abbreviates: dose: 100.0 mg/kg/injection, schedule: Q01DX009 (ip), vehicle: saline.
Where [16] appears, read: dose: 200.0 mg/kg/injection, schedule: Q01DX009 (ip), vehicle: saline.
Setting [17] is: dose: 50.0 mg/kg/injection, schedule: Q01DX009 (ip), vehicle: saline.
Where [18] appears, read: dose: 12.5 mg/kg/injection, schedule: Q01DX005 (ip), vehicle: Klucel (hydroxypropylcellulose) (HPC).
The mark [19] stands for this setting: dose: 25.0 mg/kg/injection, schedule: Q01DX009 (ip), vehicle: saline.

As for `OCC1OC2OC3C(CO)OC(OC4C(CO)OC(OC5C(CO)OC(OC6C(CO)OC(OC7C(CO)OC(OC1C(O)C2O)C(O)C7O)C(O)C6O)C(O)C5O)C(O)C4O)C(O)C3O` (stereo unspecified) (tested in a mixture with another compound), the T/C is 105 % of control (dose: 3.12 mg/kg/injection, schedule: Q01DX009 (ip), vehicle: water); 108 % of control (dose: 6.25 mg/kg/injection, schedule: Q01DX009 (ip), vehicle: water); 105 % of control (dose: 12.5 mg/kg/injection, schedule: Q01DX009 (ip), vehicle: water); 122 % of control and 111 % of control and 115 % of control (dose: 25.0 mg/kg/injection, schedule: Q01DX009 (ip), vehicle: water); 109 % of control and 111 % of control and 123 % of control (dose: 50.0 mg/kg/injection, schedule: Q01DX009 (ip), vehicle: water); 164 % of control (dose: 200.0 mg/kg/injection, schedule: Q01DX009 (ip), vehicle: water). Besides, the T/C (dose: 400.0 mg/kg/injection, schedule: Q01DX009 (ip), vehicle: water) was 250 % of control.

Take `CCOC(=O)CCC(CC)NC(=O)c1ccc(N)cc1` (stereo unspecified): the T/C runs as follows: (dose: 12.5 mg/kg/injection, schedule: Q01DX009 (ip), vehicle: distilled water + Tween-80) 93 % of control; (dose: 25.0 mg/kg/injection, schedule: Q01DX009 (ip), vehicle: distilled water + Tween-80) 91 % of control; (dose: 50.0 mg/kg/injection, schedule: Q01DX009 (ip), vehicle: distilled water + Tween-80) 98 % of control; (dose: 100.0 mg/kg/injection, schedule: Q01DX009 (ip), vehicle: distilled water + Tween-80) 102 % of control; (dose: 200.0 mg/kg/injection, schedule: Q01DX009 (ip), vehicle: distilled water + Tween-80) 106 % of control.

As for `COc1c(NC=O)c2c(c([N+](=O)[O-])c1OC)C(=O)OC2`, the T/C is, setting by setting: under setting [1], 102 % of control; under setting [2], 99 % of control; under setting [3], 98 % of control.

Consider `c1ccc(-c2cn3ccccc3n2)cc1`, for which the T/C was 98 % of control under setting [4], 108 % of control under setting [5] and 117 % of control under setting [6].

With `C/C=C(\C)[C@H](O)C(COCc1ccccc1)NS(=O)(=O)c1ccc(C)cc1` (stereo partly specified), the T/C reads like this: (dose: 60.0 mg/kg/injection, schedule: Q01DX005 (ip), vehicle: Klucel (hydroxypropylcellulose) (HPC)) 100 % of control; (dose: 120.0 mg/kg/injection, schedule: Q01DX005 (ip), vehicle: Klucel (hydroxypropylcellulose) (HPC)) 100 % of control; (dose: 240.0 mg/kg/injection, schedule: Q01DX005 (ip), vehicle: Klucel (hydroxypropylcellulose) (HPC)) 92 % of control.

As for `COc1cccc(/C=N/NC(=O)C2CCN(C(=S)NC3CC4C=CC3C4)CC2)c1O` (stereo unspecified), the T/C was 101 % of control under setting [7]; 99 % of control and 97 % of control under setting [8]; 103 % of control under setting [9]; 103 % of control under setting [10].

Turning to `O=C1C(Cl)=C(c2ccccc2)C(=O)C(Cl)=C1c1ccccc1`, the T/C was 100 % of control under setting [7], 109 % of control under setting [11] and 109 % of control under setting [8].

As to `NNC(=O)c1ccccc1CO`, the T/C by setting is: under setting [12], 96 % of control; under setting [13], 102 % of control; under setting [14], 113 % of control.

Turning to `O=C/C=C/N=c1ccn(O)cc1`, the T/C is, setting by setting: (dose: 60.0 mg/kg/injection, schedule: Q01DX005 (ip), vehicle: saline) 105 % of control; (dose: 120.0 mg/kg/injection, schedule: Q01DX005 (ip), vehicle: saline) 100 % of control; (dose: 240.0 mg/kg/injection, schedule: Q01DX005 (ip), vehicle: saline) 109 % of control.

As for `c1c2c(cc3c1OCO3)Cc1cc3c(cc1Cc1cc4c(cc1C2)OCO4)OCO3`, the T/C was 108 % of control under setting [8], 108 % of control under setting [9] and 100 % of control under setting [10].

As to `Cc1ccc2nc(N(C)C)[nH]c2c1`, the T/C is 105 % of control (dose: 50.0 mg/kg/injection, schedule: Q01DX005 (ip), vehicle: other) and 109 % of control (dose: 100.0 mg/kg/injection, schedule: Q01DX005 (ip), vehicle: other).

Consider `CCOC(=O)CNC(=O)N1COCC1(C)C`, for which the T/C is 95 % of control under setting [4], 95 % of control under setting [5] and 95 % of control under setting [6].

Regarding `C=C(C)C1=CC(=O)C(C)(C)O1`, the T/C is, setting by setting: under setting [7], 106 % of control; under setting [11], 105 % of control; under setting [8], 102 % of control.

For `NNC(=O)c1cccc2ccccc12`, the T/C is, setting by setting: (dose: 3.12 mg/kg/injection, schedule: Q01DX005 (ip), vehicle: saline) 101 % of control; (dose: 6.25 mg/kg/injection, schedule: Q01DX005 (ip), vehicle: saline) 104 % of control; (dose: 12.5 mg/kg/injection, schedule: Q01DX005 (ip), vehicle: saline) 98 % of control.

`CC(=O)Oc1cc(C)c2c(c1C)C1OC(=O)C(C)C1CC2` (stereo unspecified): the T/C is, setting by setting: under setting [1], 100 % of control; under setting [2], 103 % of control; under setting [3], 98 % of control.

For the compound `CCOCCC(O)CC` (stereo unspecified), the T/C by setting is: under setting [15], 90 % of control; (dose: 100.0 mg/kg/injection, schedule: Q04DX003 (ip), vehicle: saline) 122 % of control; under setting [16], 95 % of control; (dose: 200.0 mg/kg/injection, schedule: Q04DX003 (ip), vehicle: saline) 104 % of control; (dose: 400.0 mg/kg/injection, schedule: Q01DX009 (ip), vehicle: saline) 104 % of control.

Consider `O[P+]1(c2ccccc2)OC(C(F)(F)F)(C(F)(F)F)C(C(F)(F)F)(C(F)(F)F)O1`, for which the T/C is, setting by setting: under setting [17], 108 % of control; under setting [15], 99 % of control; under setting [16], 107 % of control.

Turning to `O=c1[nH]nc(-c2ccccc2)c2c1[nH]c1ccccc12`, the T/C is, setting by setting: under setting [12], 93 % of control; under setting [13], 96 % of control; under setting [14], 86 % of control.

Turning to `COC(=O)c1ccc(N=NN(C)CN=[N+]=[N-])cc1`, the T/C under setting [18] is 106 % of control; the T/C (dose: 25.0 mg/kg/injection, schedule: Q01DX005 (ip), vehicle: Klucel (hydroxypropylcellulose) (HPC)) was 124 % of control; the T/C under setting [2] is 160 % of control and 172 % of control.

Turning to `c1coc(CNC2=NCCCCC2)c1`, the T/C is 108 % of control (dose: 12.5 mg/kg/injection, schedule: Q01DX009 (ip), vehicle: saline); 108 % of control under setting [19]; 102 % of control under setting [17].

In the case of `CC(C)CC(NC(=O)C(C)N)C(=O)NC(C)C(=O)NC1C(O)OC(CO)C(O)C1O` (stereo unspecified), the T/C was 100 % of control (dose: 100.0 mg/kg/injection, schedule: Q01DX001 (ip), vehicle: saline with Tween-80); 97 % of control (dose: 200.0 mg/kg/injection, schedule: Q01DX001 (ip), vehicle: saline with Tween-80); 91 % of control (dose: 400.0 mg/kg/injection, schedule: Q01DX001 (ip), vehicle: saline with Tween-80).

Regarding `COc1cc2cnc3c4cc(OC)c(OC)cc4c(O)cc3c2cc1OC`, the T/C by setting is: (dose: 3.12 mg/kg/injection, schedule: Q01DX005 (ip), vehicle: Klucel (hydroxypropylcellulose) (HPC)) 98 % of control; (dose: 6.25 mg/kg/injection, schedule: Q01DX005 (ip), vehicle: Klucel (hydroxypropylcellulose) (HPC)) 106 % of control; under setting [18], 98 % of control.

Consider `Cc1nsc(Br)c1[N+](=O)[O-]`, for which the T/C under setting [19] is 105 % of control; the T/C under setting [17] was 107 % of control; the T/C under setting [15] was 107 % of control; the T/C (dose: 100.0 mg/kg/injection, schedule: Q04DX003 (ip), vehicle: saline with Tween-80) is 103 % of control; the T/C under setting [16] is 109 % of control; the T/C (dose: 200.0 mg/kg/injection, schedule: Q04DX003 (ip), vehicle: saline with Tween-80) was 108 % of control. Also, the T/C (dose: 400.0 mg/kg/injection, schedule: Q04DX003 (ip), vehicle: saline with Tween-80) is 115 % of control.
